One assay has as its system THP-1 (AML) cells. In words: LSD1 CD11b cellular assay (flow cytometry). The class given is cell-based. As to conditions: Homo sapiens, 96 h; CD11b expression in THP-1 (AML) cells, flow cytometry, 4 days incubation; read-out: Cellular IC50. The method in brief: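 THP-1 AML cells treated with serially diluted compound (0.2% DMSO final) for 4 days at 37 °C, 5% CO2. CD11b expression measured by flow cytometry with DAPI staining; IC50 derived from percent CD11b-positive cells versus inhibitor concentration.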
Background: A flow cytometer gives signals particle by particle.

The target of the next assay is full-length human LSD1 (Homo sapiens (Human), UniProt O60341). In words: In vitro enzyme inhibition assay LSD-1 (TR-FRET). Type of assay: biochemical. The settings on record: TR-FRET, 0.1 nM LSD1, 50 nM H3K4me1-biotin peptide, 2 μM FAD, pH7.3; read-out: LSD1 IC50. As to the method:
This assay determines the ability of a test compound to inhibit LSD1 demethylase activity.
The enzymatic assay of LSD1 activity is based on Time Resolved-Fluorescence Resonance Energy Transfer (TR-FRET) detection.
The ability of the compounds disclosed herein to inhibit LSD1 activity was quantified and the respective IC50 value was determined. Table 5 provides the IC50 values of various substituted heterocyclic compounds disclosed herein.
A general note: In TR-FRET formats the signal depends on donor and acceptor labels being close together.

Consider 22 compounds from US10131664B2 (Celgene Quanticel Research, Inc., priority 2013, dated 2018).

Broadly, the IC50 is the concentration needed to halve the response being measured.

In the case of `COc1nc(N2CCC(N)CC2)nc(-c2ccc(C#N)c(F)c2)c1-c1cnc2c(c1)nnn2C` [Example 157, 4-[2-(4-aminopiperidin-1-yl)-6-methoxy-5-{3-methyl-3H-[1,2,3]triazolo[4,5-b]pyridin-6-yl}pyrimidin-4-yl]-2-fluorobenzonitrile], the half-maximal inhibitory concentration (IC50) in the assay with THP-1 (AML) cells and at full-length human LSD1 was less than 100 nM each time.

`COc1nc(N2CCC(N)CC2)nc(-c2ccc(C#N)cc2)c1-c1cnc2c(c1)nnn2C` [Example 158, 4-[2-(4-aminopiperidin-1-yl)-6-methoxy-5-{3-methyl-3H-[1,2,3]triazolo[4,5-b]pyridin-6-yl}pyrimidin-4-yl]benzonitrile]: the IC50 in the assay on THP-1 (AML) cells and on full-length human LSD1 was less than 100 nM each time.

For `COc1nc(N2CCC(N)CC2)nc(-c2ccc(C#N)c(F)c2)c1-c1cnc2c(cnn2C)c1` [Example 159, 4-[2-(4-aminopiperidin-1-yl)-6-methoxy-5-{1-methyl-1H-pyrazolo[3,4-b]pyridin-5-yl}pyrimidin-4-yl]-2-fluorobenzonitrile], the IC50 in the assay with THP-1 (AML) cells and at full-length human LSD1 was less than 100 nM in each case.

For `CNc1nc(N2CCC(N)CC2)nc(-c2ccc(C#N)c(F)c2)c1-c1ccc2nn(C)cc2c1` [Example 160, 4-[2-(4-aminopiperidin-1-yl)-5-(2-methyl-2H-indazol-5-yl)-6-(methylamino)-pyrimidin-4-yl]-2-fluorobenzonitrile], the IC50 in the assay with THP-1 (AML) cells and at full-length human LSD1 was less than 100 nM in each case.

Turning to `CNc1nc(N2CCC(N)CC2)nc(-c2ccc(C#N)c(F)c2)c1-c1ccc2c(cnn2C)c1` [Example 161, 4-[2-(4-aminopiperidin-1-yl)-5-(l-methyl-1H-indazol-5-yl)-6-(methylamino)pyrimidin-4-yl]-2-fluorobenzonitrile], the IC50 with THP-1 (AML) cells and on full-length human LSD1 was less than 100 nM each time.

In the case of `CNc1nc(N2CCCNCC2)nc(-c2ccc(C#N)c(F)c2)c1-c1ccc2nn(C)cc2c1` [Example 162, 4-[2-(1,4-diazepan-1-yl)-5-(2-methyl-2H-indazol-5-yl)-6-(methylamino)pyrimidin-4-yl]-2-fluorobenzonitrile], the IC50 in the assay with THP-1 (AML) cells and at full-length human LSD1 was less than 100 nM throughout.

As to `CNc1nc(N2CCC(N)CC2)nc(-c2ccc(C#N)cc2)c1-c1ccc2nn(C)cc2c1` [Example 163, 4-[2-(4-aminopiperidin-1-yl)-5-(2-methyl-2H-indazol-5-yl)-6-(methylamino)-pyrimidin-4-yl]-benzonitrile], the IC50 in the assay on THP-1 (AML) cells and at full-length human LSD1 was less than 100 nM in each case.

Take `CNc1nc(N2CCC(N)CC2)nc(-c2ccc(C#N)cc2)c1-c1ccc2c(cnn2C)c1` [Example 164, 4-[2-(4-aminopiperidin-1-yl)-5-(1-methyl-1H-indazol-5-yl)-6-(methylamino)pyrimidin-4-yl]benzonitrile]: the IC50 with THP-1 (AML) cells and at full-length human LSD1 was less than 100 nM each time.

Turning to `CNc1nc(N2CCC(N)CC2)nc(-c2ccc(C#N)c(F)c2)c1-c1ccc2c(c1)nnn2C` [Example 165, 4-[2-(4-aminopiperidin-1-yl)-5-(1-methyl-1H-1,2,3-benzotriazol-5-yl)-6-(methylamino)pyrimidin-4-yl]-2-fluorobenzonitrile], the IC50 in the assay with THP-1 (AML) cells and at full-length human LSD1 was less than 100 nM each time.

With `CCNc1nc(N2CCC(N)CC2)nc(-c2ccc(C#N)c(F)c2)c1-c1ccc2nn(C)cc2c1` [Example 166, 4-[2-(4-aminopiperidin-1-yl)-6-(ethylamino)-5-(2-methyl-2H-indazol-5-yl)-pyrimidin-4-yl]-2-fluorobenzonitrile], the IC50 in the assay on THP-1 (AML) cells and at full-length human LSD1 was less than 100 nM throughout.

On to `CNc1nc(N2CCC(N)CC2)nc(-c2ccc(C#N)c(F)c2)c1-c1cnn(CC(F)(F)F)c1` [Example 167, 4-[2-(4-aminopiperidin-1-yl)-6-(methylamino)-5-[1-(2,2,2-trifluoroethyl)-1H-pyrazol-4-yl]pyrimidin-4-yl]-2-fluorobenzonitrile], for which the 50% inhibitory concentration (IC50) in the assay with THP-1 (AML) cells and on full-length human LSD1 was less than 100 nM each time.

In the case of `CNc1nc(N2CCC(N)CC2)nc(-c2ccc(C#N)c(F)c2)c1-c1cnc(N(C)C)nc1` [Example 168, 4-[2-(4-aminopiperidin-1-yl)-5-[2-(dimethylamino)pyrimidin-5-yl]-6-(methylamino)pyrimidin-4-yl]-2-fluorobenzonitrile], the IC50 with THP-1 (AML) cells and at full-length human LSD1 was less than 100 nM each time.

`CNc1nc(N2CCC(N)CC2)nc(-c2ccc(C#N)c(F)c2)c1-c1ccc(N(C)C)nc1` [Example 169, 4-[2-(4-aminopiperidin-1-yl)-5-[6-(dimethylamino)pyridin-3-yl]-6-(methylamino)pyrimidin-4-yl]-2-fluorobenzonitrile]: the IC50 in the assay on THP-1 (AML) cells and on full-length human LSD1 was less than 100 nM each time.

Take `CNc1nc(N2CCC(N)CC2)nc(-c2ccc(C#N)cc2)c1-c1ccc2c(c1)nnn2C` [Example 170]: the IC50 with THP-1 (AML) cells and on full-length human LSD1 was less than 100 nM throughout.

With `CNc1nc(N2CCC(N)CC2)nc(-c2ccc(C#N)c(F)c2)c1-c1cnc2c(c1)nnn2C` [Example 171, 4-[2-(4-aminopiperidin-1-yl)-5-{3-methyl-3H-[1,2,3]triazolo[4,5-b]pyridin-6-yl}-6-(methylamino)pyrimidin-4-yl]-2-fluorobenzonitrile], the IC50 with THP-1 (AML) cells and on full-length human LSD1 was less than 100 nM each time.

For `CNc1nc(N2CCCNCC2)nc(-c2ccc(C#N)cc2)c1-c1ccc2nn(C)cc2c1` [Example 172, 4-[2-(1,4-diazepan-1-yl)-5-(2-methyl-2H-indazol-5-yl)-6-(methylamino)pyrimidin-4-yl]benzonitrile], the IC50 in the assay on THP-1 (AML) cells and at full-length human LSD1 was less than 100 nM each time.

Regarding `CNc1nc(N2CCC(N(C)C)CC2)nc(-c2ccc(C#N)cc2)c1-c1ccc2nn(C)cc2c1` [Example 173, 4-{2-[4-(dimethylamino)piperidin-1-yl]-5-(2-methyl-2H-indazol-5-yl)-6-(methylamino)pyrimidin-4-yl}benzonitrile], the IC50 in the assay on THP-1 (AML) cells and at full-length human LSD1 was less than 100 nM throughout.

Take `CNc1nc(N2CCC(N)CC2)nc(-c2ccc(C#N)cc2)c1-c1cnn(CC(F)(F)F)c1` [Example 174, 4-[2-(4-aminopiperidin-1-yl)-6-(methylamino)-5-[1-(2,2,2-trifluoroethyl)-1H-pyrazol-4-yl]pyrimidin-4-yl]-benzonitrile]: the IC50 with THP-1 (AML) cells and at full-length human LSD1 was less than 100 nM each time.

On to `CNc1nc(N2CCC(N)CC2)nc(-c2ccc(C#N)c(F)c2)c1-c1cnc2c(cnn2C)c1` [Example 175, 4-[2-(4-aminopiperidin-1-yl)-5-{1-methyl-1H-pyrazolo[3,4-b]pyridin-5-yl}-6-(methylamino)pyrimidin-4-yl]-2-fluorobenzonitrile], for which the IC50 in the assay on THP-1 (AML) cells and at full-length human LSD1 was less than 100 nM each time.

Consider `CNc1nc(N2CCC(N)CC2)nc(-c2ccc(C#N)cc2)c1-c1cnc2c(c1)nnn2C` [Example 176, 4-[2-(4-aminopiperidin-1-yl)-5-{3-methyl-3H-[1,2,3]triazolo[4,5-b]pyridin-6-yl}-6-(methylamino)pyrimidin-4-yl]benzonitrile], for which the IC50 in the assay with THP-1 (AML) cells and on full-length human LSD1 was less than 100 nM in each case.

On to `CNc1nc(N2CC[C@@H](N)[C@@H](F)C2)nc(-c2ccc(C#N)cc2)c1-c1ccc2nn(C)cc2c1` [Example 177, 4-{2-[(3S,4R)-4-amino-3-fluoropiperidin-1-yl]-5-(2-methyl-2H-indazol-5-yl)-6-(methylamino)pyrimidin-4-yl}benzonitrile], for which the IC50 with THP-1 (AML) cells and at full-length human LSD1 was less than 100 nM each time.

Turning to `CNc1nc(N2CC[C@H](N)[C@H](F)C2)nc(-c2ccc(C#N)cc2)c1-c1ccc2nn(C)cc2c1` [Example 178, 4-{2-[(3R,4S)-4-amino-3-fluoropiperidin-1-yl]-5-(2-methyl-2H-indazol-5-yl)-6-(methylamino)pyrimidin-4-yl}benzonitrile], the IC50 in the assay on THP-1 (AML) cells and on full-length human LSD1 was less than 100 nM throughout.
